Assay results from patent US20230022157A1 (Achillion Pharmaceuticals, Inc., priority 2018, published 2023).
pIC50: −log10 of the molar value.

The molecules below were run against T1, Human Factor D (Homo sapiens, UniProt P00746) (assay: Human Factor D Assay). Conditions: Human Factor D 80 nM, substrate Z-L-Lys-SBzl, assay of Example 3; read-out: IC50 (Stars).
T1 construct: purified from human serum; purchased Complement Technology, Inc; host or cells: human serum (natural protein, not recombinant)
T1 sequence (P00746 26-253): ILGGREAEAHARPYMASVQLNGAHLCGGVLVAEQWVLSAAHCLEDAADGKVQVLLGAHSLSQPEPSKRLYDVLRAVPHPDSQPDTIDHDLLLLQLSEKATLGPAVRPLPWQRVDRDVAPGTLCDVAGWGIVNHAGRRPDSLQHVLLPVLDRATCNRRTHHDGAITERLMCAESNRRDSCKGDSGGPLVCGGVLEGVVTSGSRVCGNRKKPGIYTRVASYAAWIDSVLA
Type: biochemical
Outline: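 Serum-purified human factor D (80 nM final) preincubated 5 min at room temperature with test compound in 50 mM Tris, 1M NaCl, pH 7.5. Z-L-Lys-SBzl substrate and DTNB then added, each at 100 μM final. IC50 from nonlinear regression of reaction rate against compound concentration.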

Row | SMILES | pIC50
1 | CONC(=O)c1nn(CC(=O)N2[C@H](C(=O)Nc3nc(Br)ccc3C)C[C@@]3(C)C[C@@H]23)c2ccc(-c3cnc(C)nc3)cc12 [Compound 9, 1-(2-((1R,3S,5R)-3-((6-Bromo-3-methylpyridin-2-yl)carbamoyl)-5-methyl-2-azabicyclo[3.1.0]hexan-2-yl)-2-oxoethyl)-N-methoxy-5-(2-methylpyrimidin-5-yl)-1H-indazole-3-carboxamide] | > 6.00
2 | CC(=O)c1nn(CC(=O)N2[C@H](C(=O)NCCc3ccc(F)cc3)C[C@@]3(C)C[C@@H]23)c2c(C)cc(-c3cnc(C)nc3)cc12 [Compound 2, (1R,3S,5R)-2-(2-(3-Acetyl-7-methyl-5-(2-methylpyrimidin-5-yl)-1H-indazol-1-yl)acetyl)-N-(4-fluorophenethyl)-5-methyl-2-azabicyclo[3.1.0]hexane-3-carboxamide] | > 6.00
3 | CC(=O)c1nn(CC(=O)N2C[C@H](F)C[C@H]2C(=O)Nc2cccc(Br)n2)c2ccc(-c3ccc(C)nn3)cc12 [Compound 35, (2S,4R)-1-(2-(3-Acetyl-5-(6-methylpyridazin-3-yl)-1H-indazol-1-yl)acetyl)-N-(6-bromopyridin-2-yl)-4-fluoropyrrolidine-2-carboxamide] | > 6.00
4 | CCC[C@@H](C)NC(=O)[C@@H]1C[C@@]2(C)C[C@H]2N1C(=O)Cn1nc(C(C)=O)c2cc(-c3cnc(C)nc3)ccc21 [Compound 16, (1R,3S,5R)-2-(2-(3-Acetyl-5-(2-methylpyrimidin-5-yl)-1H-indazol-1-yl)acetyl)-5-methyl-N—((R)-pentan-2-yl)-2-azabicyclo[3.1.0]hexane-3-carboxamide] | > 6.00

Same assay, conditions: Human Factor D 80 nM, substrate Z-L-Lys-SBzl; Table 2; read-out: IC50 (Stars)

Row | SMILES | pIC50
5 | CC(=O)c1nn(CC(=O)N2[C@H](C(=O)NCc3ccc4c(c3)CCCC4)C[C@@]3(C)C[C@@H]23)c2c(C)cc(-c3cnc(C)nc3)cc12 [Compound 150, (1R,3S,5R)-2-{2-[3-acetyl-7-methyl-5-(2-methylpyrimidin-5-yl)indazol-1-yl]acetyl}-5-methyl-N-(5,6,7,8-tetrahydronaphthalen-2-ylmethyl)-2-azabicyclo[3.1.0]hexane-3-carboxamide] | > 6.00
6 | CC(=O)c1cn(CC(=O)N2[C@H](C(=O)Nc3cncc(Br)n3)C[C@@]3(C)C[C@@H]23)c2c(C)cc(-c3cnc(CO)nc3)cc12 [Compound 77, (1R,3S,5R)-2-(2-(3-acetyl-5-(2-(hydroxymethyl)pyrimidin-5-yl)-7-methyl-1H-indol-1-yl)acetyl)-N-(6-bromopyrazin-2-yl)-5-methyl-2-azabicyclo[3.1.0]hexane-3-carboxamide] | > 6.00
7 | CC(=O)c1nn(CC(=O)N2[C@H](C(=O)NC3CCC4(CC3)OCCO4)C[C@@]3(C)C[C@@H]23)c2c(C)cc(-c3cnc(C)nc3)cc12 [Compound 138, (1R,3S,5R)-2-{2-[3-acetyl-7-methyl-5-(2-methylpyrimidin-5-yl)indazol-1-yl]acetyl}-N-{1,4-dioxaspiro[4.5]decan-8-yl}-5-methyl-2-azabicyclo[3.1.0]hexane-3-carboxamide] | < 5.00
8 | CC(=O)c1nn(CC(=O)N2[C@H](C(=O)N[C@@H](C)C3CCCCC3)C[C@@]3(C)C[C@@H]23)c2c(C)cc(-c3cnc(C)nc3)cc12 [Compound 72, (1R,3S,5R)-2-(2-(3-Acetyl-7-methyl-5-(2-methylpyrimidin-5-yl)-1H-indazol-1-yl)acetyl)-N—((S)-1-cyclohexylethyl)-5-methyl-2-azabicyclo[3.1.0]hexane-3-carboxamide] | > 6.00
9 | CC(=O)c1cn(CC(=O)N2[C@H](C(=O)Nc3nc(Br)ccc3C)C[C@@]3(C)C[C@@H]23)c2c(C)c(F)c(-c3cnc(C)nc3)cc12 [Compound 240, (1R,3S,5R)-2-(2-(3-acetyl-6-fluoro-7-methyl-5-(2-methylpyrimidin-5-yl)-1H-indol-1-yl)acetyl)-N-(6-bromo-3-methylpyridin-2-yl)-5-methyl-2-azabicyclo[3.1.0]hexane-3-carboxamide] | > 6.00
10 | CC(=O)c1cn(CC(=O)N2[C@H]3CC[C@H](C3)[C@H]2C(=O)Nc2nc(C(F)(F)F)ccc2C)c2c(C)cc(-c3cnc(C)nc3)cc12 [Compound 177, (1S,3S,4R)-2-(2-(3-acetyl-7-methyl-5-(2-methylpyrimidin-5-yl)-1H-indol-1-yl)acetyl)-N-(3-methyl-6-(trifluoromethyl)pyridin-2-yl)-2-azabicyclo[2.2.1]heptane-3-carboxamide] | > 6.00
11 | CC(=O)c1nn(CC(=O)N2C[C@H]3C[C@H]3[C@H]2C(=O)Nc2nc(Br)ccc2C)c2c(C)cc(-c3cnc(C(C)O)nc3)cc12 (stereo partly drawn) [Compound 164, (1R,2S,5S)-3-(2-(3-acetyl-5-(2-(1-hydroxyethyl)pyrimidin-5-yl)-7-methyl-1H-indazol-1-yl)acetyl)-N-(6-bromo-3-methylpyridin-2-yl)-3-azabicyclo[3.1.0]hexane-2-carboxamide] | > 6.00
12 | CC(=O)c1nn(CC(=O)N2[C@H]3CC[C@H](C3)[C@H]2C(=O)Nc2nc(C(F)(F)F)ccc2C)c2ccc(-c3cnc4cc(C)nn4c3)cc12 [Compound 213, (1S,3S,4R)-2-(2-(3-acetyl-5-(2-methylpyrazolo[1,5-a]pyrimidin-6-yl)-1H-indazol-1-yl)acetyl)-N-(3-methyl-6-(trifluoromethyl)pyridin-2-yl)-2-azabicyclo[2.2.1]heptane-3-carboxamide] | > 6.00
13 | CC(=O)c1nn(CC(=O)N2[C@H](C(=O)Nc3cc(F)cc(Br)n3)C[C@@]3(C)C[C@@H]23)c2c(C)cc(-c3cnc(CO)nc3)cc12 [Compound 123, (1R,3S,5R)-2-(2-(3-acetyl-5-(2-(hydroxymethyl)pyrimidin-5-yl)-7-methyl-1H-indazol-1-yl)acetyl)-N-(6-bromo-4-fluoropyridin-2-yl)-5-methyl-2-azabicyclo[3.1.0]hexane-3-carboxamide] | > 6.00
14 | CC(=O)c1cn(CC(=O)N2[C@H](C(=O)Nc3nc(Br)c(F)cc3C)C[C@@]3(C)C[C@@H]23)c2c(C)cc(-c3cnc(C(C)O)nc3)cc12 (some centres unmarked) [Compound 158] | > 6.00
15 | CC(=O)c1nn(CC(=O)N2[C@H](C(=O)Nc3ccc(F)c(Br)n3)C[C@@]3(C)C[C@@H]23)c2c(C)cc(-c3cnc(CO)nc3)cc12 [Compound 120, (1R,3S,5R)-2-(2-(3-acetyl-5-(2-(hydroxymethyl)pyrimidin-5-yl)-7-methyl-1H-indazol-1-yl)acetyl)-N-(6-bromo-5-fluoropyridin-2-yl)-5-methyl-2-azabicyclo[3.1.0]hexane-3-carboxamide] | > 6.00
16 | CC(=O)c1cn(CC(=O)N2[C@H](C(=O)Nc3nc(C(F)(F)F)ccc3C)C[C@@]3(C)C[C@@H]23)c2c(C)cc(-c3cnc4cc(F)nn4c3)cc12 [Compound 225, (1R,3S,5R)-2-(2-(3-acetyl-5-(2-fluoropyrazolo[1,5-a]pyrimidin-6-yl)-7-methyl-1H-indol-1-yl)acetyl)-5-methyl-N-(3-methyl-6-(trifluoromethyl)pyridin-2-yl)-2-azabicyclo[3.1.0]hexane-3-carboxamide] | > 6.00
17 | Cc1ncc(-c2cc3c(C(N)=O)nn(CC(=O)N4C(C(=O)Nc5nc(Br)ccc5Cl)CC5(C)CC45)c3c(C)n2)cn1 (centres unmarked) [Compound 91, 1-{2-[3-(6-Bromo-3-chloro-pyridin-2-ylcarbamoyl)-5-methyl-2-aza-bicyclo[3.1.0]hex-2-yl]-2-oxo-ethyl}-7-methyl-5-(2-methyl-pyrimidin-5-yl)-1H-pyrazolo[3,4-c]pyridine-3-carboxylic acid amide] | > 6.00
18 | CC(=O)c1ncc(-c2cc(C)c3c(c2)c(C(C)=O)nn3CC(=O)N2[C@H](C(=O)Nc3nc(Br)ccc3C)C[C@@]3(C)C[C@@H]23)cn1 [Compound 58] | > 6.00
19 | CC(=O)c1nn(CC(=O)N2[C@H](C(=O)Nc3nc(Br)ccc3C)C[C@@]3(C)C[C@@H]23)c2c(C)cc(-c3cnc(C(C)O)nc3)cc12 (stereo partly drawn) [Compound 95, (1R,3S,5R)-2-(2-(3-acetyl-5-(2-(1-hydroxyethyl)pyrimidin-5-yl)-7-methyl-1H-indazol-1-yl)acetyl)-N-(6-bromo-3-methylpyridin-2-yl)-5-methyl-2-azabicyclo[3.1.0]hexane-3-carboxamide] | > 6.00
20 | CC(=O)c1nn(CC(=O)N2[C@H](C(=O)Nc3nc(Br)ccc3C)C[C@@]3(C)C[C@@H]23)c2c(C)cc(-c3ccnc(CO)c3)cc12 [Compound 132, (1R,3S,5R)-2-(2-(3-acetyl-5-(2-(hydroxymethyl)pyridin-4-yl)-7-methyl-1H-indazol-1-yl)acetyl)-N-(6-bromo-3-methylpyridin-2-yl)-5-methyl-2-azabicyclo[3.1.0]hexane-3-carboxamide] | > 6.00
21 | CC(=O)c1cn(CC(=O)N2[C@H](C(=O)Nc3nc(C(F)(F)F)ccc3C)C[C@@]3(CF)C[C@@H]23)c2c(C)cc(-c3cnc(C)nc3)cc12 [Compound 234, (1R,3S,5S)-2-(2-(3-acetyl-7-methyl-5-(2-methylpyrimidin-5-yl)-1H-indol-1-yl)acetyl)-5-(fluoromethyl)-N-(3-methyl-6-(trifluoromethyl)pyridin-2-yl)-2-azabicyclo[3.1.0]hexane-3-carboxamide] | > 6.00
22 | CC(=O)c1cn(CC(=O)N2[C@H](C(=O)Nc3nc(Br)ccc3C)C[C@@]3(C)C[C@@H]23)c2c(C)cc(-c3cnc4cc(C5CC5)nn4c3)cc12 [Compound 195, (1R,3S,5R)-2-(2-(3-acetyl-5-(2-cyclopropylpyrazolo[1,5-a]pyrimidin-6-yl)-7-methyl-1H-indol-1-yl)acetyl)-N-(6-bromo-3-methylpyridin-2-yl)-5-methyl-2-azabicyclo[3.1.0]hexane-3-carboxamide] | > 6.00
23 | CC(=O)c1nn(CC(=O)N2[C@H]3CC[C@H](C3)[C@H]2C(=O)Nc2nc(Br)ccc2C)c2c(C)cc(-c3cnc(CO)nc3)cc12 [Compound 100, (1S,3S,4R)-2-(2-(3-acetyl-5-(2-(hydroxymethyl)pyrimidin-5-yl)-7-methyl-1H-indazol-1-yl)acetyl)-N-(6-bromo-3-methylpyridin-2-yl)-2-azabicyclo[2.2.1]heptane-3-carboxamide] | > 6.00
